From article PMC7614683, “A small molecule PI3Kα activator for cardioprotection and neuroregeneration” (Nature, 2023)

How the values were obtained:
MCF10A cells = assay: pAKT S473 western blot, MCF10A; assay type: cell-based, human
ATM = biological target: T1, ATM (Homo sapiens, UniProt Q13315); assay: ATM in vitro kinase assay (Phos-tag gel); assay type: biochemical; conditions: 200 μM 1938
T1 construct: made in house
Method: 133 protein kinases and 7 lipid kinases were counterscreened, with 1938 used at 1 μM, using the Adapta, Lantha and Z-LYTE assays (SelectScreen Kinase Profiling Service; Thermofisher – experimental details of these assays can be found here: https://www.thermofisher.com/uk/en/home/industrial/pharma-biopharma/drug-discovery-development/target-and-lead-identification-and-validation/kinasebiology/kinase-activity-assays.html. The tree represention in KinMap[59] generated courtesy of Cell Signaling Technology, Inc. (www.cellsignal.com). mTORC1 (mTOR/RAPTOR/LST8) protein complex and ATM kinase and substrates were produced as previously described[57],[60]. Screening of 1938 was conducted using SuperSep Phos-Tag 50 μmol/l 100 x 100 x 6.6 mm 17-well (192-18001/199-18011) gels. For ATM assays, 100 nM ATM was incubated for 30 min at 30°C with 5 μM GST-p53 and 1 mM ATP, in the absence or presence of 200 μM 1938 in ATM Kinase Buffer (50 mM HEPES pH 7.5, 100 mM NaCl, 10% glycerol, 2 mM […], 5 mM MgCl2). As a positive control for ATM activation, the same reaction was carried out with 100 nM ATM/5 μM GST-p53/1 mM ATP in the presence of 100 nM Mre11-Rad50-Nbs1 (MRN) complex, a known activator of ATM[61]. […] Gels were then stained using InstantBlue™ Coomassie, and quantified using BioRad Image Lab Software. […]

adult rat DRG neurons = assay: Neurite outgrowth in dissociated adult rat dorsal root ganglion cultures; assay type: cell-based; conditions: 72h; BYL719 500 nM with 1938 above 10^-7 M
Text: Dissociated adult rat dorsal root ganglion (DRG) cultures were used as an in vitro model for neuroregeneration[80],[81]. DRG neurons were isolated from adult male (>250g) Wistar rats as described, with DRGs from each rat cultured separately. Following culling via schedule 1 (rising concentration of CO2), the spinal column was removed and stored in PBS on ice. Cord tissue was removed to expose the DRGs and roots in the intervertebral foramen and the DRGs removed with forceps and scalpel under a dissecting microscope (Olympus SZ40). DRGs were manually cleaned by removal of roots, capsule and capillaries with forceps and then placed in DMEM supplemented with P/S. DRGs were treated with 0.125% collagenase type IV solution at 37°C for 90 min, and then mechanically dissociated by trituration using a 1 ml pipette. The collagenase solution was removed by 2 rounds of centrifugation in complete DMEM (DMEM with 1% P/S and 10% FBS) at 400 xg for 5 min, followed by resuspension of the DRG cell pellet in complete DMEM supplemented with 0.01 mM cytosine arabinoside. DRGs were plated in 75-cm[2] flasks coated with 0.1 mg/ml poly-D-lysine and incubated at 37°C, 5% CO2. […] 9 fields per well were captured and analysed using the CSIRO Neurite Analysis 2 […] in Columbus analysis software (Perkin Elmer). […]

T1 sequence (Q13315 whole entry): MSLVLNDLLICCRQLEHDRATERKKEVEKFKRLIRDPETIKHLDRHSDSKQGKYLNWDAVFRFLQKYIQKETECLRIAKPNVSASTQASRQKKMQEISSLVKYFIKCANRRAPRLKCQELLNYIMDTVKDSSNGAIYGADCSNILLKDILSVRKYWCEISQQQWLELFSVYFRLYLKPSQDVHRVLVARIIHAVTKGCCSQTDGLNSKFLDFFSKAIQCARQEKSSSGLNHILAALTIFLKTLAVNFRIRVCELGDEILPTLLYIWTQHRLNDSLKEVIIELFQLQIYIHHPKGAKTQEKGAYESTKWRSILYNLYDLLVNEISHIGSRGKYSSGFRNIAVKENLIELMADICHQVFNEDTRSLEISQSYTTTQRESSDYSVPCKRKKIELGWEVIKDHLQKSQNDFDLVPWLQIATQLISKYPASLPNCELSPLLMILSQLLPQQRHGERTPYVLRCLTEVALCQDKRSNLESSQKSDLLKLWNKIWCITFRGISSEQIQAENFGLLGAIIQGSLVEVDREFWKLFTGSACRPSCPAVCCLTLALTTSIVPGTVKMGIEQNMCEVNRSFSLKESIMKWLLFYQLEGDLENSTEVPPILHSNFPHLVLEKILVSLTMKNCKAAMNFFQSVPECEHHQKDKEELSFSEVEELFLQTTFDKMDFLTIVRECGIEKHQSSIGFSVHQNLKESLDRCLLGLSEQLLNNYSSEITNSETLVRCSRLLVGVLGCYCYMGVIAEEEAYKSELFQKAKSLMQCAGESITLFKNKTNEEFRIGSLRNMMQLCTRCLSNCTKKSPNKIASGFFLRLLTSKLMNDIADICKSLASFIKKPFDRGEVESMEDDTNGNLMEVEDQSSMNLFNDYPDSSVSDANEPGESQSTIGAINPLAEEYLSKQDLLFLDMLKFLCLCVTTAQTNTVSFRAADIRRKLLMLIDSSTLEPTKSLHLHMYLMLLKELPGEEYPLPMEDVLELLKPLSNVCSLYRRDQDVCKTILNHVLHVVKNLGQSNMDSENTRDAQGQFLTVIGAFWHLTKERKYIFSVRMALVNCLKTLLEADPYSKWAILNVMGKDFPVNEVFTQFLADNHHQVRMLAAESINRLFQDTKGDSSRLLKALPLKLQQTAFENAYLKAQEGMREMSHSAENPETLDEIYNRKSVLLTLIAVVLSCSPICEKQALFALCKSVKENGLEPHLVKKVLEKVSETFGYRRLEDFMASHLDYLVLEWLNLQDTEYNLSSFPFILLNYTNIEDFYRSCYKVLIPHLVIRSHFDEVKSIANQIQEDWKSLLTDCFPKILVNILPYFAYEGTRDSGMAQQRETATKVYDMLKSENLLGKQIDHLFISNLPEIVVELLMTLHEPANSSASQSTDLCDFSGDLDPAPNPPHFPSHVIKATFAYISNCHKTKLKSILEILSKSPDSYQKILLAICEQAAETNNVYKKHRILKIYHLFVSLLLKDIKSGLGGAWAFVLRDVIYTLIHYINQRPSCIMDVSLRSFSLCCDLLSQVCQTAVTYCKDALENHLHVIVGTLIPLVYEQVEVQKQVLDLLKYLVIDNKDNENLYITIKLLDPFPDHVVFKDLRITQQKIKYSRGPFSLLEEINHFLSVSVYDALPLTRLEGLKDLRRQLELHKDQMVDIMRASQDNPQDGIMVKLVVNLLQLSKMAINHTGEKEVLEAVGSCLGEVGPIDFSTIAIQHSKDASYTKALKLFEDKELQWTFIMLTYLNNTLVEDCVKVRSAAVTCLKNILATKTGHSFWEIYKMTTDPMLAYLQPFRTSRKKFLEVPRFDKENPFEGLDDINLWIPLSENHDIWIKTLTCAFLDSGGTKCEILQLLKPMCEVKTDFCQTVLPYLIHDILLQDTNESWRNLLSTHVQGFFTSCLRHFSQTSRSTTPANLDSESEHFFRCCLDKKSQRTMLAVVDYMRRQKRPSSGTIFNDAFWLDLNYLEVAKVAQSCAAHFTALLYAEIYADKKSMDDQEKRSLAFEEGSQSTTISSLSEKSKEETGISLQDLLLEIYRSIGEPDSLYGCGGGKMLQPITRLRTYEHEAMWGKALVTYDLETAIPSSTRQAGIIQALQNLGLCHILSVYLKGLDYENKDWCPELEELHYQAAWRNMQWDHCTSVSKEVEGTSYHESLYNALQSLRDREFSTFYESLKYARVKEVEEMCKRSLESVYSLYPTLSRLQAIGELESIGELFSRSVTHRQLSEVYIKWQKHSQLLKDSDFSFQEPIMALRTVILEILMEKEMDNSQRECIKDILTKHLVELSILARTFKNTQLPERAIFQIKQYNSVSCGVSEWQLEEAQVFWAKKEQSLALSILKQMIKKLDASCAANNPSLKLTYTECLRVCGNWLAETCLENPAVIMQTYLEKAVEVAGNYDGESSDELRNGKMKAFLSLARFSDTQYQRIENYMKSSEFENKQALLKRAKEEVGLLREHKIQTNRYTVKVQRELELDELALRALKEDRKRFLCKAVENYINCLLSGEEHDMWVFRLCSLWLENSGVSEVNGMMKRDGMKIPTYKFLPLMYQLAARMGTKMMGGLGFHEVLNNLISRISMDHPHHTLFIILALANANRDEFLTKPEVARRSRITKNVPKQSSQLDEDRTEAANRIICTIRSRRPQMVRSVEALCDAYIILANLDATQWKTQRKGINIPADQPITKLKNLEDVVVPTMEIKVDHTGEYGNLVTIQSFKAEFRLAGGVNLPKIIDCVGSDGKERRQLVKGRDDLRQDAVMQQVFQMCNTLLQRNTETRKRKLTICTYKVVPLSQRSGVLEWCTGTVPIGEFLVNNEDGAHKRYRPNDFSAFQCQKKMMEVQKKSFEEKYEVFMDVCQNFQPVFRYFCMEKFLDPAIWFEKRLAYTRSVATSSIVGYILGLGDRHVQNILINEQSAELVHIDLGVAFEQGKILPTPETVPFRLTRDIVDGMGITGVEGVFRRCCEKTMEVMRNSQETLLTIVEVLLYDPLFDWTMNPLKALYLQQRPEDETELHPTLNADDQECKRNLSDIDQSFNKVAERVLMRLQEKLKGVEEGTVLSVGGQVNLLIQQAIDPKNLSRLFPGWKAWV

CCN1CCN(c2ccc(Nc3cc(Nc4cccc5c4N(C(C)=O)CC5)ccn3)cc2)CC1 [Compound 1938]
pAKT^S473 increase (MCF10A cells): BYL719-sensitive increase in pAKT^S473
effect on ATM activity (ATM): did not affect the activity
neurite outgrowth (total length of neurites) (adult rat DRG neurons): doubling the total length of neurites
